Test systems include HOP-92; M19-MEL; KM12; A498; SK-MEL-5; EKVX; HL-60; OVCAR-4; HOP-62; OVCAR-3; SF-295; M14; MOLT-4; OVCAR-8; SK-OV-3; UACC-257; UACC-62.
What all share (experiment): NCI-60 cell line screen, 48 h

Structures are written as SMILES.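 These data come from cells grown in 96-well plates and exposed to compound for 48 hours at five concentrations. GI50 marks 50% less growth.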 Activity calls are given as the source filed them. Rule as the data show it: active = GI50 up to about 1.1 µM and inactive = higher.

Turning to `O=C1N(c2ccccc2)C(=O)C2(SC=NN2Cc2ccccc2)N1c1ccccc1` (stereo not drawn), the GI50 in the assay on HOP-92, in the assay with M19-MEL, with KM12, with A498, in the assay with SK-MEL-5 and in the assay with EKVX was > 100 µM (inactive) throughout. For the same compound, the GI50 is 51.2 µM (inactive) with HL-60; > 100 µM (inactive) in the assay on OVCAR-4; > 100 µM (inactive) with HOP-62; > 100 µM (inactive) with OVCAR-3; > 100 µM (inactive) in the assay with SF-295; > 100 µM (inactive) in the assay on M14. Further, the GI50 in the assay on MOLT-4, in the assay on OVCAR-8, with SK-OV-3, with UACC-257 and with UACC-62 was > 100 µM (inactive) throughout.

For the compound `COC(=O)C1CC(C(=O)OC)c2nc3cc([N+](=O)[O-])ccc3nc21` (stereo not drawn), the GI50 with HOP-92 is > 100 µM (inactive); in the assay on M19-MEL, 61 µM (inactive); in the assay with KM12, 23.1 µM (inactive); with A498, > 100 µM (inactive); in the assay on SK-MEL-5, 58.7 µM (inactive); with EKVX it was > 81.3 µM (inactive). In addition, the GI50 in the assay on HL-60 is 7.23 µM (inactive); in the assay with OVCAR-4, > 100 µM (inactive); in the assay on HOP-62, > 52.8 µM (inactive); in the assay with OVCAR-3, 33.1 µM (inactive); with SF-295 it was 25.5 µM (inactive); with M14, 39 µM (inactive). The GI50 in the assay with MOLT-4 was 19.4 µM (inactive); in the assay on OVCAR-8, > 90.4 µM (inactive); with SK-OV-3, > 94 µM (inactive); with UACC-257, 55.6 µM (inactive); with UACC-62, 22.6 µM (inactive).

For the compound `CC#C[I+]c1ccccc1`, the GI50 was 16.4 µM (inactive) in the assay with HOP-92; 17.8 µM (inactive) with M19-MEL; 16.5 µM (inactive) in the assay on KM12; 60.5 µM (inactive) in the assay with A498; 23.4 µM (inactive) in the assay with SK-MEL-5; 16.2 µM (inactive) in the assay on EKVX. For the same compound, the GI50 is 15 µM (inactive) with HL-60; 17.3 µM (inactive) with OVCAR-4; 35.3 µM (inactive) in the assay with HOP-62; 17.5 µM (inactive) with OVCAR-3; 69.3 µM (inactive) in the assay on SF-295; 17.3 µM (inactive) in the assay with M14. For the same compound, the GI50 in the assay with MOLT-4 was 12.1 µM (inactive); in the assay with OVCAR-8 it was 15.1 µM (inactive); in the assay on SK-OV-3, 30.3 µM (inactive); in the assay with UACC-257, 20.9 µM (inactive); with UACC-62, 22.3 µM (inactive).

On to `CC1(C)O[C@@H](CCl)C[C@@H](C#N)O1`, for which the GI50 in the assay with HOP-92, in the assay with M19-MEL, with KM12, with A498, in the assay on SK-MEL-5 and in the assay with EKVX was > 100 µM (inactive) each time. The GI50 in the assay with HL-60, in the assay with OVCAR-4, in the assay on HOP-62, with OVCAR-3, in the assay on SF-295 and with M14 was > 100 µM (inactive) each time. The GI50 with MOLT-4, in the assay on OVCAR-8, in the assay with SK-OV-3, with UACC-257 and in the assay with UACC-62 was > 100 µM (inactive) each time.

Take `BrC1=CC=C2NC=CC3=CC=NC1C32` (stereo not drawn): the GI50 in the assay with HOP-92 is 15.7 µM (inactive); in the assay with M19-MEL, 14.1 µM (inactive); with KM12 it was 24.2 µM (inactive); with A498, 30.3 µM (inactive); in the assay on SK-MEL-5 it was 20 µM (inactive); in the assay on EKVX it was 39.5 µM (inactive). In addition, the GI50 was 4.08 µM (inactive) with HL-60; 27.7 µM (inactive) in the assay with OVCAR-4; 25.5 µM (inactive) in the assay on HOP-62; 22 µM (inactive) with OVCAR-3; 8.36 µM (inactive) with SF-295; 18 µM (inactive) in the assay with M14. For the same compound, the GI50 was 2.75 µM (inactive) in the assay with MOLT-4; 16.4 µM (inactive) with OVCAR-8; 25.1 µM (inactive) with SK-OV-3; 33.5 µM (inactive) in the assay with UACC-257; 9.53 µM (inactive) in the assay with UACC-62.

Turning to `COc1cc(/C=C2\NC(=O)C(Cc3cc(OC)c(OC)c(C)c3OC)N(C(C)=O)C2=O)c(OC)c(C)c1OC` (stereo not drawn), the GI50 is 29.3 µM (inactive) in the assay on HOP-92; > 100 µM (inactive) in the assay with M19-MEL; 94.6 µM (inactive) in the assay with KM12; > 100 µM (inactive) in the assay on A498; 42.9 µM (inactive) in the assay with SK-MEL-5; 43.7 µM (inactive) with EKVX. Moreover, the GI50 is 23 µM (inactive) in the assay with HL-60; > 100 µM (inactive) in the assay on OVCAR-4; > 100 µM (inactive) in the assay on HOP-62; > 100 µM (inactive) with OVCAR-3; > 100 µM (inactive) in the assay with SF-295; > 100 µM (inactive) in the assay on M14. The GI50 with MOLT-4 was 33.3 µM (inactive); in the assay on OVCAR-8 it was 72.8 µM (inactive); with SK-OV-3, > 100 µM (inactive); with UACC-257 it was > 100 µM (inactive); in the assay on UACC-62 it was > 100 µM (inactive).

Take `COc1ccc2c3c1C(=O)CCC3CO2` (stereo not drawn): the GI50 is > 100 µM (inactive) in the assay with HOP-92; > 100 µM (inactive) in the assay on M19-MEL; > 100 µM (inactive) in the assay with KM12; > 100 µM (inactive) in the assay on A498; > 100 µM (inactive) with SK-MEL-5; 91 µM (inactive) with EKVX. The GI50 in the assay with HL-60, in the assay with OVCAR-4, in the assay with HOP-62, in the assay with OVCAR-3, in the assay on SF-295 and in the assay on M14 was > 100 µM (inactive) each time. For the same compound, the GI50 with MOLT-4, in the assay with OVCAR-8, in the assay with SK-OV-3, in the assay with UACC-257 and in the assay on UACC-62 was > 100 µM (inactive) in each case.

`CC#C[P+](c1ccccc1)(c1ccccc1)c1ccccc1`: the GI50 was 2.16 µM (inactive) in the assay with HOP-92; 2.9 µM (inactive) in the assay on M19-MEL; 2.88 µM (inactive) with KM12; 39.4 µM (inactive) in the assay on A498; 2.2 µM (inactive) with SK-MEL-5; 4.83 µM (inactive) in the assay with EKVX. For the same compound, the GI50 was 3.71 µM (inactive) in the assay on HL-60; 6.49 µM (inactive) in the assay with OVCAR-4; 2.83 µM (inactive) in the assay with HOP-62; 3.09 µM (inactive) in the assay on OVCAR-3; 2.75 µM (inactive) with SF-295; 1.88 µM (inactive) in the assay with M14. The GI50 in the assay with MOLT-4 was 0.953 µM (active); with OVCAR-8, 0.962 µM (active); in the assay with SK-OV-3 it was 14.6 µM (inactive); in the assay on UACC-257 it was 2.76 µM (inactive); in the assay on UACC-62, 3.72 µM (inactive).

As for `CC1(C)CC2CC(CC(C)(C)C2=O)C1=O`, the GI50 in the assay on HOP-92, in the assay with M19-MEL, in the assay with KM12, in the assay on A498, in the assay on SK-MEL-5 and in the assay with EKVX was > 100 µM (inactive) each time. In addition, the GI50 in the assay on HL-60, with OVCAR-4, in the assay with HOP-62, with OVCAR-3, with SF-295 and in the assay with M14 was > 100 µM (inactive) throughout. Also, the GI50 in the assay on MOLT-4, with OVCAR-8, in the assay with SK-OV-3, in the assay on UACC-257 and in the assay on UACC-62 was > 100 µM (inactive) each time.

For the origin of these results see ChEMBL document CHEMBL1201862, “PubChem BioAssay data set” (2004).
